Assay results reported in PMC10709440, “High-throughput ligand profile characterization in novel cell lines expressing seven heterologous insect olfactory receptors for the detection of volatile plant biomarkers” (Scientific Reports, 2023).
Where “and” joins values, the source holds several entries; their conditions need not be identical. Identical values can stand only once. Like-named read-outs stand apart in the source and are kept apart here.

Key:
[1] = molecular target: T1, Drosophila OR10a (Drosophila melanogaster, UniProt Q9VYZ1); experiment: Calcium ion fluorescence (GCaMP6) assay, OR10a stable HEK293 cell line; type: cell-based
T1 construct: expressed in transfected cells
T1 sequence (Q9VYZ1 1-406): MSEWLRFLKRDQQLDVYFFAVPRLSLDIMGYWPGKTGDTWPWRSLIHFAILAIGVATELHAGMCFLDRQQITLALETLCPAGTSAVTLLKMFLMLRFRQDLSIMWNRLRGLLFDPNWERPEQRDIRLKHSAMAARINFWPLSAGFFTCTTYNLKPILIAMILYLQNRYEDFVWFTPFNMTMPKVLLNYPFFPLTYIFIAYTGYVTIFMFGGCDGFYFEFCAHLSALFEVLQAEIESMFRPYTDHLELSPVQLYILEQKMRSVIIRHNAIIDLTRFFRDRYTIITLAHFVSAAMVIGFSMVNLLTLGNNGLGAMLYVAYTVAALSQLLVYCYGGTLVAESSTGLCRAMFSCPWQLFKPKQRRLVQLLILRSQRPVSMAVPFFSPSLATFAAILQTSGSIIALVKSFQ
T1 sequence (Q9VNB5 1-486 partner): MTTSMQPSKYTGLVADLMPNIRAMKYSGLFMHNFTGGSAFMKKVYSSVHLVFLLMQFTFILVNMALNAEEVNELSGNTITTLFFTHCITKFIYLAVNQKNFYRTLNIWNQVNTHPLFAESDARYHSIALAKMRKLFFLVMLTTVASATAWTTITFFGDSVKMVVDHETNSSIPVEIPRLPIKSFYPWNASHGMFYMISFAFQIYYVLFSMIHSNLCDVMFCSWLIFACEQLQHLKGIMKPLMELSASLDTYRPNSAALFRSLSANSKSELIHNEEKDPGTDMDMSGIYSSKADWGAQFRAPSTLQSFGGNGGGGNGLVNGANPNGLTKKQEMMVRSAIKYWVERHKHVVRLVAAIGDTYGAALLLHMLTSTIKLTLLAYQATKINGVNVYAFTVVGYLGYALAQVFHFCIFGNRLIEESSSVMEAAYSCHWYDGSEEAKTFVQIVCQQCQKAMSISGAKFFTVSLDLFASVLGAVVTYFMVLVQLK
Procedure: (§1) These VUAA1 normalized ∆F values were used to compare the different receptors and ligands.
(§2) The concentration-dependent effect of the reference ligands on their cognate cell lines was examined in more detail. Twelve different ligand concentrations were measured on each cell line in an overall 0.01 μM to 100 μM concentration range with 5 repetitions with three technical replicates each time.
(§3) Twelve thousand to 18,000 cells were plated into each well of a black wall, transparent bottom 384-well microplate (Greiner) 48 h or 72 h before the measurements and were simultaneously treated with 1 μg/mL doxycycline. […] The plate has 24 columns, thus we could record responses in up to eight different cell lines in each plate. On the day of the experiment, the growth medium was replaced with 20 µL assay buffer/well (140 mM NaCl, 5 mM KCl, 2 mM CaCl2, 1 mM MgCl2, 5 mM HEPES-Na, 20 mM glucose, pH 7.3, 340 mOsm). […] Baseline fluorescence (F0) was recorded for 5 s, after which 7 µL VOC buffer (140 mM NaCl, 5 mM KCl, 2 mM CaCl2, 1 mM MgCl2, 5 mM HEPES-Na, 31 mM glucose, 0.1% DMSO, pH 7.3, 340 mOsm) was injected into each well in one row and the fluorescence response was recorded for an additional 30 s, at a rate of one read/sec. VOC solutions (VOC buffer with 4× concentration of the final measured VOC concentration, 9 µL/well was injected) were measured on the same wells in a second round with the same protocol. Each individual concentration of a specific VOC sample was recorded in three wells for the same cell line on the same microplate. The raw data were exported in xls file format, F0 and FMAX values, and the fluorescence intensity changes (∆F) were calculated in Excel (Microsoft) (Supplementary file Data summary.xlsx) using the following equation: ΔF=FMAX-F0/F0 (see also Fig. 1C). On each plate, we recorded the response of each cell line to 50 µM VUAA1. The average of these ∆F values of each cell line were used to calculate the VUAA1-normalized values for the rest of the plate, by dividing VOC response ∆F values by the average VUAA1 response ∆F value of the corresponding OR cell line. Each VOC-OR combination was measured three times as technical replicates. […] The average of these replicates were used as one ∆F and VUAA1-normalized ∆F in the following analysis.
(§4) In the next rows we tested the reference VOCs (or other VOCs known to activate the corresponding cell lines), in order to test if all cell lines are responsive. The remaining rows were used to test VOCs with unknown effect.
(§5) The recorded FMAX, F0, ∆F, VUAA1-normalized ∆F values, as well as the OR name, the name of the tested sample, and the final concentration for each well were copied into supplementary file Data summary.xlsx, that was used to summarize all the plates recorded. Here, the averages of the measurements were calculated for each receptor-VOC-concentration combination.

[2] = molecular target: T2, Drosophila OR85b (Drosophila melanogaster, UniProt Q9VHQ7); experiment: Calcium ion fluorescence (GCaMP6) assay, OR85b stable HEK293 cell line; type: cell-based; conditions: for activation at 1 µM / activation at 10 µM / activation at 100 µM: HEK293, read-out: OR85b response (VUAA1-normalized response); for Average response: OR85b cell line, VUAA1-normalized response, mean of biological replicates; for DF norm AVERAGE OR85b: normalized fluorescence change, values below 0.05 threshold given as 0
T2 construct: expressed in transfected cells
T2 sequence (Q9VHQ7 1-390): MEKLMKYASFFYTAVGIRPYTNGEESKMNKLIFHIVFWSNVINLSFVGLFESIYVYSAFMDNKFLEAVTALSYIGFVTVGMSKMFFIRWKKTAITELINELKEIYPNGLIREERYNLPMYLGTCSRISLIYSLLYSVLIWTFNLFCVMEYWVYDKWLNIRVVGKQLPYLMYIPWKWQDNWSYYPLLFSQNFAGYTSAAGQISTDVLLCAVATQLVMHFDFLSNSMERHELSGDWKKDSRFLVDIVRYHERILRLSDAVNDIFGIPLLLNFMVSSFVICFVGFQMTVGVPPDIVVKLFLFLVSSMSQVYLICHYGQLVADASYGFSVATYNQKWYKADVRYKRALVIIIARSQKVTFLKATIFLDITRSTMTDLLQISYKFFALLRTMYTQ
T2 sequence (Q9VNB5 1-486 partner): T1 sequence (Q9VNB5 1-486 partner)
Procedure: as §1, §2, §3, §4, §5

[3] = HEK293, read-out: OR10a response (VUAA1-normalized response), VOC concentration 1 μM
[4] = HEK293, read-out: OR10a response (VUAA1-normalized response), VOC concentration 10 μM
[5] = HEK293, read-out: OR10a response (VUAA1-normalized response), VOC concentration 100 μM

Row | Structure (SMILES) | activation at 1 µM [1, 3] | activation at 10 µM [1, 4] | activation at 100 µM [1, 5] | activation at 1 µM [2] | activation at 10 µM [2] | activation at 100 µM [2] | Average response ([2]; cc. 1 µM) | Average response ([2]; cc. 10 µM) | Average response ([2]; cc. 100 µM) | DF norm AVERAGE OR85b ([2]; concentration 1) | DF norm AVERAGE OR85b ([2]; concentration 10) | DF norm AVERAGE OR85b ([2]; concentration 100) | other results
1 | CCCCC(C)=O [2-hexanone] | 10% | 0% | 0% | 0% | 6% | 0% | 0.00 | 0.06 | 0.0338 | 0 | 0.05777 | 0 | activation at 1 µM ([1]; HEK293, read-out: OR10a Average response (VUAA1-normalized), 1 μM VOC, 50 μM VUAA1 = 1, responses not exceeding 0.05 considered 0): 10%; activation at 10 µM ([1]; HEK293, read-out: OR10a Average response (VUAA1-normalized), 10 μM VOC, 50 μM VUAA1 = 1, responses not exceeding 0.05 considered 0): 0%; activation at 100 µM ([1]; HEK293, read-out: OR10a Average response (VUAA1-normalized), 100 μM VOC, 50 μM VUAA1 = 1, responses not exceeding 0.05 considered 0): 0%; DF norm AVERAGE OR10a ([1]; concentration 1, normalized fluorescence change, values below 0.05 threshold given as 0): 0.09901; DF norm AVERAGE OR10a ([1]; concentration 10, normalized fluorescence change, values below 0.05 threshold given as 0): 0; DF norm AVERAGE OR10a ([1]; concentration 100, normalized fluorescence change, values below 0.05 threshold given as 0): 0
2 | CCCCCCCCC(CO)CCCCCC (stereo not shown) [2-hexyl-1-decanol] | 15% | 11% | 19% | 13% | 7% | 8% | 0.13 | 0.07 | 0.08 | 0.1336 | 0.06997 | 0.07977 | DF norm AVERAGE OR10a [1]: 0.1461 and 0.1055 and 0.1938; activation at 1 µM ([1]; HEK293, 1 μM VOC, 50 μM VUAA1 = 1, responses not exceeding 0.05 considered 0, read-out: OR10a Average response (VUAA1-normalized)): 15%; activation at 10 µM ([1]; HEK293, 10 μM VOC, 50 μM VUAA1 = 1, responses not exceeding 0.05 considered 0, read-out: OR10a Average response (VUAA1-normalized)): 11%; activation at 100 µM ([1]; HEK293, 100 μM VOC, 50 μM VUAA1 = 1, responses not exceeding 0.05 considered 0, read-out: OR10a Average response (VUAA1-normalized)): 19%
